From patent US12239661B2, “Methods and compositions for treating undesired implanted tissue filler” (priority 2019, dated 2025)
Like-named read-outs stand apart in the source and are kept apart here. Marks after values point to notes of the source that are not given here.

How the values were obtained:
[1] = In vivo CT of filler nodule volume, density and 3D shape after test solutions 0-8 (Example 3)
Method: One hour after filler injections (T=1 h), 1.5 mL of selected solutions (Table 5, solutions 0-8, test items, solution 0 is normal saline and not hyperosmotic) were injected each into 9 dermal filler nodules in the right flank (ventral area).
(§1) A total of 7 CT-scans were performed at 1 h 15, 2 h, 4 h, 1 day (24 h), 3, 7 and 14 days after injection of the dermal filler. The clinical state of each animal is assessed once a week by body weight measurement and clinical observations.
The 10 SC injections of dermal filler on Day 0 were performed in the ventral area, (five nodules on each flank of the ventral area) for each pig. For each SC nodule, a theoretical volume of 500 μl was administered. One hour (±5 min) after injection of dermal filler, SC injection of the different solutions (prepared the day before) were performed into nine (9) nodules of dermal. For each SC nodule, a theoretical volume of 1.5 mL of test solution was administered.
The X-ray computed tomography acquisitions were performed with the Computed Tomography Scanner BrightSpeed 16 (General Electric). In order to measure the volume and the mean density and to visualize the 3D shape of the dermal filler (Radiesse® filler with or without test solution) injected, in vivo CT-scans were performed on Day 0: 1 h 15 (±10 min), 2 h (±15 min) and 4 h (±20 min), on Day 1 (24 h+1 h), Day 3, Day 7 and Day 14.
During CT acquisition on Day 0, the pigs received an IM injection of anesthesia. The animals were maintained under anesthesia until the CT acquisition at T=2 h (2 h after dermal filler injection session). Between these CT acquisitions, the animals were under surveillance in the recovery room on a heating mat with fluidotherapy. At the end of the CT acquisition at T=2 h, the pigs received a tattoo around each injected site. During the CT acquisitions at T=4 h and on Days 1, 3, 7 and 14, pigs received an IM injection of anesthesia. For the CT-scans, animals were positioned in dorsal recumbency and acquisitions were centered on the injection sites. The parameters of the CT-scan are described in Table 5.
The CT acquisition was analyzed with the software Avizo version 9.2.0. The objective of this analysis was to assess the degradation over time of the dermal filler injected by SC route after injection of different test solutions.
An image segmentation processing was performed on each CT acquisition. First, a manual pre-segmentation was performed around each nodule in order to roughly isolate the voxels corresponding to dermal filler product, which defined a Region of Interest (ROI). Second, an automatic segmentation was applied on the previously defined ROI using a global grey level thresholding procedure.
On day 0, a farm pig received ten (10) SC injections of Radiesse® dermal filler 0.5 mL (ventral area) (10 nodules in total). One hour after filler injections (T=1 h), 1.5 mL of one of eight test hyperosmotic solutions (1-8 solutions, Table 5) was injected at an injection site. One injection site was untreated and one injection site was treated with normal saline (0.9% wt/v NaCl).

[2] = SC injection of 1.5 mL into filler nodule
Method: as §1
On day 14, one pig received one SC injection of Radiesse® filler in order to represented a Day 0 injection which is considered a positive control and then, all pigs were euthanized and each nodule with a part of the skin, along with negative control skin (skin samples without injection), were sampled in order to perform histological analysis of, for example, the inflammation, the necrosis and the dermal filler presence at the injection site.

Which “nodule visibility / degradation of filler at end of study” value ([1]; Day 14, CT 3D models) does the source give for `[Ca+2].[Cl-].[Cl-]` [sol 4, Calcium chloride] here?
Its value is “largely degraded/dispersed the Radiesse® dermal filler”.

And the “Change in Volume as percent of Injected Volume, Day 14/15” value ([1]; Example 3 (Day 14), mean)?
Its value is 169.73* percent.

And the “Change in Volume as percent of Injected Volume, Day 0 + 2 h” value ([1]; Example 3, mean)?
The value was 162.46%.

What about the “Change in Volume as percent of Injected Volume, Day 0 + 4 h” value ([1]; Example 3, mean) of the same compound?
The value was 157.72%.

What about the “Change in Volume as percent of Injected Volume, Day 1” value ([1]; Example 3, mean) of the same compound?
The value was 145.42* percent.

What about the “Change in Volume as percent of Injected Volume, Day 3” value ([1]; Example 3, mean) of the same compound?
Its value is 174.24* percent.

What about the “Change in Volume as percent of Injected Volume, Day 7” value ([1]; Example 3, mean) of the same compound?
Its value is 175.91* percent.

And the “Change in Volume as percent of Injected Volume, Day 0 + 1 h 15” value ([1]; Example 3, mean, 1.5 mL solution into 500 μl nodule)?
Its value is 170.60* percent.

What about the “local tolerance at injection site” value [2] of the same compound?
Its value is “large wound on pigs”.

And the “local tolerance at injection site” value ([2]; listed as CaCl2)?
The value was “strong local irritating effect”.

What about the “local tolerance at injection site” value ([2]; listed as ClCl2) of the same compound?
The value was “severe skin necrosis”.
